Assay [1] concerns the target T1, human Cot catalytic domain (30-397 amino acids) (Homo sapiens, UniProt P41279).
T1 construct: Purified recombinant human Cot catalytic domain (30-397 amino acids) was purchased from Cama Biosciences; purchased Cama Biosciences (so in the source)
Put plainly: High Throughput Cot Biochemical Assay (KinEASE TR-FRET). As to conditions: read-out: IC50 HTRF. An outline of the steps: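 TR-FRET readout: Eu-labeled phospho-specific antibody binds XL665-tagged STK3 peptide after phosphorylation by Cot (aa 30-397, 5 nM). Conditions: 400 μM ATP, 1 μM peptide, MOPS pH 7.0 buffer with MgOAc, DTT, BSA, NP-40, glycerol; 0.1% DMSO.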
(In general: In TR-FRET formats the signal depends on donor and acceptor labels being close together.)

The subject of assay [2] is TNFα production in LPS-stimulated human monocytes. Description: Cot Monocyte TNFα Cell Based Assay. To be noted: Homo sapiens, Monocyte, read-out: EC50 TNF. An outline of the steps:
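TR-FRET read-out of total secreted TNFα, normalized as % control (unstimulated = 0%, LPS-stimulated = 100%). Cells (5,000/well) were exposed to compound 1 h at 37 °C, then to 50 pg/ml LPS for a further 4 h.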

[3] abbreviates: Cot KinEASE TR-FRET (HTRF) biochemical assay, 400 μM ATP.
Setting [4] is: TNFα in LPS-stimulated human monocytes.
[5] abbreviates: Cot KinEASE TR-FRET, 400 μM ATP.
Where [6] appears, read: LPS-stimulated human monocytes, TNFα TR-FRET.
Where [7] appears, read: Cot biochemical HTRF (KinEASE TR-FRET) assay.

Where two headings read alike, the source gives them in different places. A value given as a limit tells only on which side of the number the result lay.

T1 sequence (P41279 30-397): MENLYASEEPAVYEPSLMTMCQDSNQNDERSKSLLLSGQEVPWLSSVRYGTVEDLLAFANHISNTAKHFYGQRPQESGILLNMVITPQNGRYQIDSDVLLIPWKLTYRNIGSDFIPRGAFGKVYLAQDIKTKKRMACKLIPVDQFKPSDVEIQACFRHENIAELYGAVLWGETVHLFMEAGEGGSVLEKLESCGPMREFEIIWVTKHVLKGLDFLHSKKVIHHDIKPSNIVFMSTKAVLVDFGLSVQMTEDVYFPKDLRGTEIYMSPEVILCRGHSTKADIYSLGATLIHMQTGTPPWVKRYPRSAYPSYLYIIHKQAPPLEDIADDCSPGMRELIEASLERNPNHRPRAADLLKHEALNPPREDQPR

With `Cc1cc(Nc2c(C#N)cnc3c(Cl)cc(N[C@@H](c4ccc(F)cc4)c4c[nH]nn4)cc23)cnc1F` [Example 375, (S)-8-chloro-4-((6-fluoro-5-methylpyridin-3-yl)amino)-6-(((4-fluorophenyl)(1H-1,2,3-triazol-4-yl)methyl)amino) quinoline-3-carbonitrile], the IC50 in assay [1] (setting [3]) worked out at 48 nM. Moreover, the EC50 in assay [2] (setting [4]) turned out to be 1260 nM.
As to `[2H][C@](Nc1cc(I)c2ncc(C#N)c(NCC(C)(C)C)c2c1)(c1ccc(F)cc1)c1cn(C2CC2)nn1` [Example 102, (S)-6-(((1-cyclopropyl-1H-1,2,3-triazol-4-yl)(4-fluorophenyl)methyl-d)amino)-8-iodo-4-(neopentylamino) quinoline-3-carbonitrile], the IC50 in assay [1] (setting [3]) was 58 nM. In addition, in assay [2] (setting [4]), the EC50 is greater than 1000 nM.
For `[2H][C@](Nc1cc(Cl)c2ncc(C#N)c(NCCC(C)C)c2c1)(c1ccc(F)cc1)c1cn(C2CC2)nn1` [Example 268, (S)-8-chloro-6-(((1-cyclopropyl-1H-1,2,3-triazol-4-yl)(4-fluorophenyl)methyl-d)amino)-4-(isopentylamino)quinoline-3-carbonitrile], in that order: 166 nM and 2890 nM.
On to `[2H][C@](Nc1cc(Cl)c2ncc(C#N)c(NC3(CC)CCC3)c2c1)(c1ccc(F)cc1)c1cn(C2CC2)nn1` [Example 218, (S)-8-chloro-6-(((1-cyclopropyl-1H-1,2,3-triazol-4-yl)(4-fluorophenyl)methyl-d)amino)-4-((1-ethylcyclobutyl)amino)quinoline-3-carbonitrile], for which the IC50 in assay [1] (setting [3]) came out at 432 nM. Further, the EC50 in assay [2] (setting [4]) stood at 5390 nM.
For the compound `CC(C)(C)CNc1c(C#N)cnc2c(F)cc(N[C@H](c3cn(C4(C(N)=O)CC4)nn3)c3ccccc3Cl)cc12` [Example 999, (S)-1-(4-((2-chlorophenyl)((3-cyano-8-fluoro-4-(neopentylamino)quinolin-6-yl)amino)methyl)-1H-1,2,3-triazol-1-yl)cyclopropane-1-carboxamide], the IC50 in assay [1] (setting [5]) stood at 63 nM. Moreover, in assay [2] (setting [6]), the concentration for a half-maximal effect (EC50) was 306 nM.
Consider `N#Cc1cnc2c(Cl)cc(N[C@@H](c3ccccc3)c3cn([C@@H]4CCNC[C@H]4O)nn3)cc2c1Nc1ccc(F)c(Cl)c1` [Example 515, 8-chloro-4-((3-chloro-4-fluorophenyl)amino)-6-(((S)-(1-((3R,4R)-3-hydroxypiperidin-4-yl)-1H-1,2,3-triazol-4-yl)(phenyl)methyl)amino) quinoline-3-carbonitrile], for which the concentration for half-maximal inhibition (IC50) in assay [1] (setting [7]) came to 1 nM. Moreover, the EC50 in assay [2] (setting [4]) was 324 nM.
Turning to `[2H][C@@](Nc1cc(Cl)c2ncc(C#N)c(NCC(C)(C)C)c2c1)(c1cn(CC(=O)O)nn1)c1ccccc1Cl` [Example 108, (S)-2-(4-(((8-chloro-3-cyano-4-(neopentylamino)quinolin-6-yl)amino)(2-chlorophenyl)methyl-d)-1H-1,2,3-triazol-1-yl)acetic acid], in assay [1] (setting [3]), the IC50 amounted to 48 nM. In assay [2] (setting [4]), the EC50 is greater than 1000 nM.
Turning to `[2H][C@](Nc1cc(Cl)c2ncc(C#N)c(N[C@H](CC)c3ccccc3)c2c1)(c1cccc(C#N)c1)c1cn(CC=C)nn1` [Compound 61], the IC50 in assay [1] (setting [3]) came out at 3 nM. Further, the EC50 in assay [2] (setting [4]) was found to be 75 nM.
On to `CC(C)(C)CNc1c(C#N)cnc2c(C#N)cc(N[C@@H](c3ccc(F)cc3)c3cn(C4(CO)CC4)nn3)cc12` [Example 979, (S)-6-(((4-fluorophenyl)(1-(1-(hydroxymethyl)cyclopropyl)-1H-1,2,3-triazol-4-yl)methyl)amino)-4-(neopentylamino)quinoline-3,8-dicarbonitrile], for which, in assay [1] (setting [5]), the IC50 amounted to 4 nM. Also, the EC50 in assay [2] (setting [6]) was 103 nM.
Consider `CCCCNc1c(C#N)cnc2c(Cl)cc(N[C@@H](c3ccc(Cl)cc3)c3cn(C4CCN(C(C)(C)C)CC4)nn3)cc12` [Example 683, (S)-6-(((1-(1-(tert-butyl)piperidin-4-yl)-1H-1,2,3-triazol-4-yl)(4-chlorophenyl)methyl)amino)-4-(butylamino)-8-chloroquinoline-3-carbonitrile], for which the IC50 in assay [1] (setting [7]) amounted to 165 nM. In assay [2] (setting [4]), the EC50 is 7250 nM.
In the case of `[2H]C([2H])(Nc1c(C#N)cnc2c(Cl)cc(N[C@@]([2H])(c3cccc(C#N)c3)c3cn(C4CC4)nn3)cc12)C(C)(C)C` [Example 239, (S)-8-chloro-6-(((3-cyanophenyl)(1-cyclopropyl-1H-1,2,3-triazol-4-yl)methyl-d)amino)-4-((2,2-dimethylpropyl-1,1-d2)amino)quinoline-3-carbonitrile], in assay [1] (setting [3]), the IC50 was determined as 2 nM. Further, in assay [2] (setting [4]), the EC50 was 55 nM.
Take `[2H][C@](Nc1cc(Cl)c2ncc(C#N)c(N[C@H](CC)c3ccccc3)c2c1)(c1ccccc1Cl)c1nn[nH]c1C` [Example 298, 8-chloro-6-(((S)-(2-chlorophenyl)(5-methyl-1H-1,2,3-triazol-4-yl)methyl-d)amino)-4-(((R)-1-phenylpropyl)amino)quinoline-3-carbonitrile]: the IC50 in assay [1] (setting [3]) was determined as 121 nM. Moreover, in assay [2] (setting [4]), the EC50 stood at 1470 nM.
As for `[2H][C@](Nc1cc(-c2cnn(C)c2)c2ncc(C#N)c(NCC(C)(C)C)c2c1)(c1ccc(F)cc1)c1cn(C2CC2)nn1` [Example 137, (S)-6-(((1-cyclopropyl-1H-1,2,3-triazol-4-yl)(4-fluorophenyl)methyl-d)amino)-8-(1-methyl-1H-pyrazol-4-yl)-4-(neopentylamino) quinoline-3-carbonitrile], the IC50 in assay [1] (setting [3]) stood at 606 nM. In addition, the EC50 in assay [2] (setting [4]) worked out at 4370 nM.
Take `N#CCC[C@@H](Nc1c(C#N)cnc2c(C#N)cc(N[C@@H](c3ccccc3)c3cn(C4(C#N)CC4)nn3)cc12)c1ccccc1` [Example 961, 4-(((R)-3-cyano-1-phenylpropyl)amino)-6-(((S)-(1-(1-cyanocyclopropyl)-1H-1,2,3-triazol-4-yl)(phenyl)methyl)amino) quinoline-3,8-dicarbonitrile]: the IC50 in assay [1] (setting [5]) came to 1 nM. Moreover, the EC50 in assay [2] (setting [6]) stood at 21 nM.
In the case of `CC(C)(C)CNc1c(C#N)cnc2c(C#N)cc(N[C@@H](c3ccc(F)cc3)c3cn(C4(c5cccnn5)CC4)nn3)cc12` [Example 987, (S)-6-(((4-fluorophenyl)(1-(1-(pyridazin-3-yl)cyclopropyl)-1H-1,2,3-triazol-4-yl)methyl)amino)-4-(neopentylamino)quinoline-3,8-dicarbonitrile], the IC50 in assay [1] (setting [5]) came out at 32 nM. Moreover, the half-maximal effective concentration (EC50) in assay [2] (setting [6]) was found to be 69 nM.
In the case of `N#Cc1cnc2c(Cl)cc(N[C@@H](c3ccc(F)cc3)c3c[nH]nn3)cc2c1Nc1cncc(F)c1` [Example 353, (S)-8-chloro-6-(((4-fluorophenyl)(1H-1,2,3-triazol-4-yl)methyl)amino)-4-((5-fluoropyridin-3-yl)amino)quinoline-3-carbonitrile], in assay [1] (setting [3]), the IC50 worked out at 104 nM. The EC50 in assay [2] (setting [4]) was determined as 3180 nM.
For `[2H][C@](Nc1cc(C(F)(F)F)c2ncc(C#N)c(NCC(C)(C)C)c2c1)(c1ccc(F)cc1)c1cn(C2CC2)nn1` [Example 196, (S)-6-(((1-cyclopropyl-1H-1,2,3-triazol-4-yl)(4-fluorophenyl)methyl-d)amino)-4-(neopentylamino)-8-(trifluoromethyl) quinoline-3-carbonitrile], the IC50 in assay [1] (setting [3]) amounted to 267 nM. In assay [2] (setting [4]), the EC50 was 1510 nM.
`CC[C@@H](Nc1c(C#N)cnc2c(Cl)cc(N[C@@H](c3ccc(F)cc3)c3cn(-c4ccncc4)nn3)cc12)c1ccccc1` [Example 390, 8-chloro-6-(((S)-(4-fluorophenyl)(1-(pyridin-4-yl)-1H-1,2,3-triazol-4-yl)methyl)amino)-4-(((R)-1-phenylpropyl)amino)quinoline-3-carbonitrile]: in assay [1] (setting [3]), the IC50 was 30 nM. Also, the EC50 in assay [2] (setting [4]) stood at 318 nM.
The corresponding values for `CC(C)(C)N1CCC(n2cc([C@@H](Nc3cc(Cl)c4ncc(C#N)c(Nc5cnc(F)c(Cl)c5)c4c3)c3ccccc3)nn2)CC1` [Compound 10] are 4 nM and 71 nM.
As to `CC[N+](C)(CC)CCn1cc([C@@H](Nc2cc(Cl)c3ncc(C#N)c(Nc4ccc(Cl)c(Cl)c4F)c3c2)c2ccccc2)nn1` [Example 530, (S)-2-(4-(((8-chloro-3-cyano-4-((3,4-dichloro-2-fluorophenyl)amino)quinolin-6-yl)amino)(phenyl)methyl)-1H-1,2,3-triazol-1-yl)-N,N-diethyl-N-methylethan-1-aminium], the IC50 in assay [1] (setting [7]) was 198 nM. The 50% effective concentration (EC50) in assay [2] (setting [4]) was greater than 10000 nM.
The corresponding values for `CC(C)n1cc([C@@H](Nc2cc(Cl)c3ncc(C#N)c(Nc4cccc(Cl)c4F)c3c2)c2cccc(C(=O)N(C)C)c2)nn1` [Example 607, (S)-3-(((8-chloro-4-((3-chloro-2-fluorophenyl)amino)-3-cyanoquinolin-6-yl)amino)(1-isopropyl-1H-1,2,3-triazol-4-yl)methyl)-N,N-dimethylbenzamide] are 2 nM and 198 nM.
For `[2H][C@](Nc1cc(C#N)c2ncc(C#N)c(NCC(C)(C)C)c2c1)(c1ccc(F)cc1)c1cn(-c2cccnc2)nn1` [Example 994, (S)-6-(((4-fluorophenyl)(1-(pyridin-3-yl)-1H-1,2,3-triazol-4-yl)methyl-d)amino)-4-(neopentylamino) quinoline-3,8-dicarbonitrile], in assay [1] (setting [5]), the IC50 amounted to 33 nM. In addition, the EC50 in assay [2] (setting [6]) amounted to 103 nM.

What is called IC50 is the concentration at which inhibition is half-maximal. As usually defined, the EC50 is the midpoint of the concentration-response curve.

Source of the values: patent US10316017B2, “COT modulators and methods of use thereof” (Gilead Sciences, Inc., priority 2015, dated 2019).
